Measurements from ChEMBL document CHEMBL1124516, “Synthesis of 2,3-diaziridinyl-1,4-naphthoquinone sulfonate derivatives as potential antineoplastic agents” (1989).

Tests used:
[1] = test system: Mus musculus; assay: Average change in weight in mice bearing the L1210 Leukemia, when compound (25 mg/kg) was administered once daily beginning 24 hr after tumor implantation, for 6 consecutive days.; type: functional
[2] = test system: Mus musculus; assay: Average change in weight in mice bearing the L1210 Leukemia, when compound(30 mg/kg) was administered once daily beginning 24 hr after tumor implantation, for 6 consecutive days.; type: functional
[3] = test system: Mus musculus; assay: Number of mice surviving for a period greater than 50 days when a dose of 30 mg/Kg is administered intraperitoneally; tested in 5 mice; type: functional
[4] = test system: Mus musculus; assay: Average change in weight in mice bearing the L1210 Leukemia, when compound (20 mg/kg) was administered once daily beginning 24 hr after tumor implantation, for 6 consecutive days.; type: functional
[5] = test system: L1210; assay: Percentage survival time of L1210 (murine leukemia) inoculated mice following 30 mg/kg i.p.; type: functional, Mus musculus; conditions: route intraperitoneal
[6] = test system: L1210; assay: Percentage survival time of L1210 (murine leukemia) inoculated mice following 20 mg/kg i.p.; type: functional, Mus musculus; conditions: route intraperitoneal
[7] = test system: L1210; assay: Percentage survival time of L1210 (murine leukemia) inoculated mice following 25 mg/kg i.p.; type: functional, Mus musculus; conditions: route intraperitoneal
[8] = test system: L1210; assay: Number L1210 (murine leukemia) inoculated mice surviving for >50 days following 25 mg/kg i.p.; type: functional, Mus musculus; conditions: route intraperitoneal
[9] = test system: Mus musculus; assay: Number of mice survived for a period greater than 50 days when a dose of 20 mg/Kg is administered intraperitoneally; tested in 5 mice; type: functional
[10] = test system: Mus musculus; assay: Survival of mice bearing B16 melanoma cells greater than 50 days when treated with a dose of 150 mg/Kg administered intraperitoneally; tested in 5 mice; type: functional
[11] = test system: Mus musculus; assay: Average change in weight in mice bearing the B16 Melanoma, when compound(100 mg/kg) was administered beginning 24 hr after tumor implantation, daily once for 6 consecutive days.; type: functional
[12] = test system: Mus musculus; assay: Survival of mice bearing B16 melanoma cells greater than 50 days when treated with a dose of 50 mg/Kg administered intraperitoneally; tested in 5 mice; type: functional
[13] = test system: Mus musculus; assay: The ratio of the survival time of treated to control animals x 100 in mice bearing B16 Melanoma, when compound (100 mg/kg) was administered intraperitoneally; type: functional
[14] = test system: Mus musculus; assay: The ratio of the survival time of treated to control animals x 100 in mice bearing B16 Melanoma, when compound (150 mg/kg) was administered intraperitoneally; type: functional
[15] = test system: Mus musculus; assay: Survival of mice bearing B16 melanoma cells greater than 50 days when treated with a dose of 100 mg/Kg administered intraperitoneally; tested in 5 mice; type: functional
[16] = test system: Mus musculus; assay: Average change in weight in mice bearing the B16 Melanoma, when compound(50 mg/kg) was administered intraperitoneally beginning 24 hr after tumor implantation, daily once for 6 consecutive days.; type: functional
[17] = test system: Mus musculus; assay: Average change in weight in mice bearing the B16 Melanoma, when compound(150 mg/kg) was administered beginning 24 hr after tumor implantation, daily once for 6 consecutive days.; type: functional
[18] = test system: Mus musculus; assay: The ratio of the survival time of treated to control animals x 100 in mice bearing B16 Melanoma, when compound (50 mg/kg) was administered intraperitoneally; type: functional

Row | SMILES | Average body weight change [1] [%] | Average change in body weight [2] [%] | Survivals [3] | Average change in body weight [4] [%] | Activity [5] | Activity [6] | Activity [7] | Survivals [8] | Survivals [9] | Survivals [10] | Average change in body weight [11] [%] | Survivals [12] | Activity [13] | Activity [14] | Survivals [15] | Average body weight change [16] [%] | Average change in body weight [17] [%] | Activity [18]
1 | O=C1C(N2CC2)=C(N2CC2)C(=O)c2c(OS(=O)(=O)c3ccc([N+](=O)[O-])cc3[N+](=O)[O-])cccc21 | 4.8 | -1.3 | 0 | 2.3 | 100 | 111 | 105 | 0 | 0 |  |  |  |  |  |  |  |  | 
2 | Cc1ccc(S(=O)(=O)Oc2cccc3c2C(=O)C=C(N2CC2)C3=O)cc1 | 5.1 | 1.2 | 0 | 7.3 | 111 | 102 | 103 | 0 | 0 |  |  |  |  |  |  |  |  | 
3 | CC1(C)C2CCC1(CS(=O)(=O)Oc1cccc3c1C(=O)C(N1CC1)=C(N1CC1)C3=O)C(=O)C2 (centres undefined) | -3.5 | -9.2 | 0 | -9.3 | 168 | 136 | 148 | 0 | 0 |  |  |  |  |  |  |  |  | 
4 | O=C1C(N2CC2)=C(N2CC2)C(=O)c2c(OS(=O)(=O)c3ccc(F)cc3)cccc21 | -5.7 | -3.4 | 5 | 0.3 |  |  | 200 | 4 | 5 | 0 | -14.3 | 0 | 182 | 177 | 0 | -5.2 | -20.3 | 159
5 | O=C1C(N2CC2)=C(N2CC2)C(=O)c2c(OS(=O)(=O)c3cccc4cccnc34)cccc21 | -6.5 | -8 | 3 | -6.6 | 291 | 332 | 418 | 4 | 3 |  | -8.2 |  | 219 | 239 |  | -1.7 | -14.3 | 195
6 | CN(C)c1cccc2c(S(=O)(=O)Oc3cccc4c3C(=O)C(N3CC3)=C(N3CC3)C4=O)cccc12 | 3.8 | 3.9 | 0 | 2.2 | 117 | 110 | 115 | 0 | 0 |  |  |  |  |  |  |  |  | 
7 | O=C1C(N2CC2)=C(N2CC2)C(=O)c2c(OS(=O)(=O)Cc3ccccc3)cccc21 | 3.1 | -3 | 0 | 2.4 | 141 | 127 | 153 | 0 | 0 |  |  |  |  |  |  |  |  | 
8 | Cc1cc(C)c(S(=O)(=O)Oc2cccc3c2C(=O)C(N2CC2)=C(N2CC2)C3=O)c(C)c1 | -2.5 | -2.6 | 0 | -0.4 | 124 | 113 | 113 | 0 | 0 |  |  |  |  |  |  |  |  | 
9 | O=C1C(N2CC2)=C(N2CC2)C(=O)c2c(OS(=O)(=O)c3ccc(Br)cc3)cccc21 | 11.2 | 8.3 | 0 | 12.2 | 179 | 214 | 165 | 0 | 0 |  | 2.5 |  | 153 | 151 |  | 1.1 | 0.7 | 143
10 | O=C1C(N2CC2)=C(N2CC2)C(=O)c2c(OS(=O)(=O)/C=C/c3ccccc3)cccc21 | 1.9 | -1 | 0 | -3.5 | 150 | 132 | 130 | 0 | 0 |  |  |  |  |  |  |  |  | 
